The text below walks through data of ChEMBL document CHEMBL1156829 (Proc Natl Acad Sci U S A, 2008).

A word on the EC50: it is the midpoint of the concentration-response curve. In general, CC50 refers to the concentration that lowers cell viability or growth by half. Read a high CC50 as better tolerance by the cells.

Some results are limits rather than exact numbers.

Data set [1] relates to Plasmodium falciparum. As to the kind of experiment: NOVARTIS: Inhibition of Plasmodium falciparum 3D7 (drug-susceptible) proliferation in erythrocyte-based infection assay. In kind it is functional, organism-based. The following applies: Plasmodium falciparum, 3D7.
Data set [2] concerns Plasmodium falciparum. As to the kind of experiment: NOVARTIS: Inhibition of Plasmodium falciparum W2 (drug-resistant) proliferation in erythrocyte-based infection assay. The following applies: Plasmodium falciparum, W2; read-out: EC50. The class given is functional, organism-based.
Data set [3] in a line: NOVARTIS: Cytotoxicity against human hepatocellular carcinoma cell line (Huh7). In kind it is toxicity, cell-based, Huh-7. The following applies: Huh7 cells (hepatocellular carcinoma cell line).

In the case of `O=C(Nc1cc(C(F)(F)F)cc(C(F)(F)F)c1)Nc1ccc(Cl)c(Cl)c1`, the EC50 in the data set with Plasmodium falciparum [1] stood at 814 nM; with Plasmodium falciparum [2], 927 nM. Also, the 50% cytotoxic concentration (CC50) in data set [3] stood at 6570 nM.

Consider `Ic1nc2ccccc2s1`, for which the EC50 was over 295 nM in the data set on Plasmodium falciparum [1] and 1350 nM with Plasmodium falciparum [2]. For the same molecule, in data set [3], the CC50 is over 10000 nM.

For `CCN1CCN(C/C=C/c2ccccc2[N+](=O)[O-])CC1`, the concentration for a half-maximal effect (EC50) was over 1250 nM with Plasmodium falciparum [1] and 1410 nM with Plasmodium falciparum [2]. Moreover, in data set [3], the half-maximal cytotoxic concentration (CC50) is over 10000 nM.

Consider `C[N+](C)(C)c1ccc2cc(Br)c3ccccc3c2c1`, for which the 50% effective concentration (EC50) was found to be 759 nM in the data set on Plasmodium falciparum [1] and 1370 nM with Plasmodium falciparum [2]. The same molecule gave a CC50 in data set [3] of over 10000 nM.

As to `Cc1nc([P+](c2ccccc2)(c2ccccc2)c2ccccc2)c(N2CCCCC2)o1`, the figures for the concentration for a half-maximal effect (EC50) in the data set on Plasmodium falciparum [1] and in the data set with Plasmodium falciparum [2] were 761 nM and 967 nM, respectively. This molecule came in with a CC50 in data set [3] of 7120 nM.

With `COc1ccc(CCNc2nc(NCCCN3CCCC3)ncc2C(=O)NCC(C)C)cc1OC`, the EC50 in the data set with Plasmodium falciparum [1] was 809 nM; with Plasmodium falciparum [2], over 1350 nM. The cytotoxic concentration (CC50) in data set [3] is over 10000 nM.

Turning to `O=C(c1nccs1)C1CCN(C(=O)c2cscn2)CC1`, the concentration giving a half-maximal response (EC50) with Plasmodium falciparum [1] was over 1250 nM; in the data set with Plasmodium falciparum [2], 1390 nM. For the same molecule, in data set [3], the half-maximal cytotoxic concentration (CC50) was over 10000 nM.

With `Cc1ccc(CN2C(=O)C(O)(CC(=O)c3ccccc3)c3ccccc32)cc1` (stereo not given), the EC50 in the data set on Plasmodium falciparum [1] was determined as 7010 nM; with Plasmodium falciparum [2], 8960 nM. The molecule further returned a CC50 in data set [3] of over 64500 nM.

On to `Cc1cc(S(=O)(=O)N2CCN(Cc3ccccc3)CC2)ccc1-n1cnnn1`, for which the EC50 in the data set on Plasmodium falciparum [1] came to 732 nM; in the data set on Plasmodium falciparum [2], 1410 nM. The CC50 in data set [3] is over 10000 nM.

On to `CCOc1ccc2nc(C)cc(Nc3ccc(OC)cc3)c2c1`, for which the concentration for a half-maximal effect (EC50) in the data set with Plasmodium falciparum [1] was 419 nM; with Plasmodium falciparum [2], 1150 nM. For the same molecule, in data set [3], half-maximal cytotoxicity (CC50) was put at 8350 nM.

As for `CC(C)CNC(=O)c1cnc(NCCCN2CCCC2)nc1NCC1CCCCC1`, the concentration giving a half-maximal response (EC50) in the data set with Plasmodium falciparum [1] is 474 nM; in the data set with Plasmodium falciparum [2], over 1350 nM. In data set [3], this molecule gave a cytotoxic concentration (CC50) of over 10000 nM.

With `CCN1C(=O)N(CC(N)=O)C(=O)C12CCN(Cc1ccc(N(C)c3ccccc3)cc1)CC2`, the 50% effective concentration (EC50) in the data set with Plasmodium falciparum [1] is over 12500 nM; in the data set with Plasmodium falciparum [2] it was 7790 nM. In data set [3], this molecule registered a cytotoxic concentration (CC50) of 57800 nM.

On to `Cc1cc(C)c(S(=O)(=O)NCc2ccc(Cl)cc2)c(C)c1`, for which the EC50 is over 12500 nM in the data set on Plasmodium falciparum [1] and 6590 nM in the data set on Plasmodium falciparum [2]. The same molecule showed a CC50 in data set [3] of 48900 nM.

In the case of `COc1cc(NC(C)CCCN(Cc2ccc(Cl)cc2)C(=O)Nc2ccc(Br)cc2)c2ncccc2c1` (stereo not given), the results for the half-maximal effective concentration (EC50) with Plasmodium falciparum [1] and in the data set on Plasmodium falciparum [2] were over 1250 nM and 788 nM, respectively. This molecule also came in with a CC50 in data set [3] of over 5600 nM.

For `CCCCCN(C(=O)COc1ccc(Cl)cc1)C(CC)c1nc2ccccc2c(=O)n1-c1cccc(Cl)c1` (stereo not given), the EC50 was 1420 nM in the data set on Plasmodium falciparum [1] and over 1380 nM in the data set with Plasmodium falciparum [2]. The molecule also registered a CC50 in data set [3] of over 10000 nM.

Take `O=C(Cc1ccc(Cl)cc1)NNS(=O)(=O)c1ccc([N+](=O)[O-])cc1`: the concentration for a half-maximal effect (EC50) was over 893 nM in the data set on Plasmodium falciparum [1] and over 1370 nM with Plasmodium falciparum [2]. The molecule also returned a CC50 in data set [3] of over 10000 nM.

On to `O=C(NCC1CCCO1)c1cnc(N2CCN(c3ncccn3)CC2)c2ccccc12` (stereo not given), for which the EC50 was over 637 nM in the data set with Plasmodium falciparum [1] and over 1400 nM in the data set with Plasmodium falciparum [2]. The cytotoxic concentration (CC50) in data set [3] was over 10000 nM.

As for `CC(=O)Nc1ccc(S(=O)(=O)Nc2ccccc2[N+](=O)[O-])cc1`, the half-maximal effective concentration (EC50) in the data set with Plasmodium falciparum [1] was determined as 677 nM; in the data set with Plasmodium falciparum [2], 1400 nM. In data set [3], this molecule returned a CC50 of over 10000 nM.

Turning to `CCC(=O)N1CCOc2c(cc(-c3csc4ccccc34)cc2OCCc2ccccn2)C1`, the half-maximal effective concentration (EC50) in the data set on Plasmodium falciparum [1] was over 1620 nM; with Plasmodium falciparum [2], 1350 nM. This molecule also yielded a 50% cytotoxic concentration (CC50) in data set [3] of over 10000 nM.

`CCOC(=O)c1[nH]nc(C(=O)c2ccccc2)c1-c1ccccc1`: the results for the half-maximal effective concentration (EC50) in the data set with Plasmodium falciparum [1] and in the data set with Plasmodium falciparum [2] were over 393 nM and over 1350 nM, respectively. This molecule had a CC50 in data set [3] of over 10000 nM.

For `CCN1/C(=C/c2sc3ccc(-c4ccccc4)cc3[n+]2CCO)C=Cc2ccccc21`, the EC50 in the data set on Plasmodium falciparum [1] came out at 955 nM; in the data set with Plasmodium falciparum [2] it was 1340 nM. Further, the CC50 in data set [3] was over 10000 nM.

Consider `O=c1c2c3c(sc2ncn1CCCc1ccccc1)CC(N1CCC(N2CCCCC2)CC1)CC3` (stereo not given), for which the values for the EC50 in the data set with Plasmodium falciparum [1] and with Plasmodium falciparum [2] were 386 nM and 2020 nM, respectively. In data set [3], this molecule registered a CC50 of 14800 nM.

With `O=C(O)CSC(C(=O)Nc1ccc(Cl)cc1)c1ccccc1` (stereo not given), the EC50 is over 1620 nM in the data set with Plasmodium falciparum [1] and over 1360 nM in the data set on Plasmodium falciparum [2]. This molecule registered a CC50 in data set [3] of over 10000 nM.

`CCNc1nc(NC(C)C)nc(NC(N)NOC)n1` (stereo not given): the EC50 was over 1150 nM with Plasmodium falciparum [1] and over 1400 nM with Plasmodium falciparum [2]. The CC50 in data set [3] is over 10000 nM.

As to `Cc1noc(C)c1C(=O)N1CCC(O)(c2ccccn2)CC1`, the EC50 with Plasmodium falciparum [1] was over 563 nM; in the data set with Plasmodium falciparum [2], over 1400 nM. The molecule also returned a CC50 in data set [3] of over 10000 nM.

For the molecule `C1=C(c2ccc(CN3CCCCC3)cc2)N2CCN=C2c2ccccc21`, the concentration for a half-maximal effect (EC50) in the data set on Plasmodium falciparum [1] came out at 278 nM; in the data set with Plasmodium falciparum [2], 579 nM. In addition, in data set [3], the CC50 is 4140 nM.

`COc1ccc(CN(CC2CCN(C(=O)c3ccccc3Cl)CC2)C(=O)c2ccc(Cl)cc2Cl)cc1`: the results for the EC50 in the data set on Plasmodium falciparum [1] and with Plasmodium falciparum [2] were 7250 nM and 3310 nM, respectively. Besides, in data set [3], the CC50 was found to be 24300 nM.

On to `O=C(NCCCN1CCCC1=O)C(=O)NCC(c1ccco1)N1CCOCC1` (stereo not given), for which the EC50 in the data set with Plasmodium falciparum [1] was over 1250 nM; in the data set on Plasmodium falciparum [2], 1350 nM. The 50% cytotoxic concentration (CC50) in data set [3] is over 10000 nM.

As for `c1ccc2cc3c(NCCCN4CCOCC4)ccnc3cc2c1`, the figures for the EC50 in the data set on Plasmodium falciparum [1] and in the data set on Plasmodium falciparum [2] were 44.3 nM and 83.5 nM, respectively. Further, in data set [3], the midpoint of cytotoxicity, the CC50, lay at 598 nM.

Turning to `CCOP1(=O)COc2ccccc2OC1`, the values for the EC50 with Plasmodium falciparum [1] and in the data set on Plasmodium falciparum [2] were over 1140 nM and over 1380 nM, respectively. Also, in data set [3], the half-maximal cytotoxic concentration (CC50) is over 10000 nM.

Regarding `CC[n+]1c(/C=C/C=C2\N(C)c3ccccc3C2(C)C)n(-c2ccccc2)c2ccc(C)cc21`, the EC50 in the data set on Plasmodium falciparum [1] was found to be 1530 nM; with Plasmodium falciparum [2], 1400 nM. In data set [3], this molecule displayed a CC50 of over 10000 nM.

Take `Cc1ccc(N2C(=O)C3C(C2=O)C2(c4ccccc4)C(=O)C3(c3ccccc3)C(c3ccccc3)=C2c2ccccc2)cc1Br` (stereo not given): the figures for the concentration giving a half-maximal response (EC50) in the data set on Plasmodium falciparum [1] and with Plasmodium falciparum [2] were 1440 nM and 1410 nM, respectively. The same molecule had a 50% cytotoxic concentration (CC50) in data set [3] of over 10000 nM.

On to `O=C(O)c1ccc([C@@H]2Nc3c(ccc4ccccc34)[C@@H]3C=CC[C@@H]32)cc1`, for which the half-maximal effective concentration (EC50) in the data set with Plasmodium falciparum [1] is over 1250 nM; with Plasmodium falciparum [2], 1340 nM. For the same molecule, the CC50 in data set [3] is over 10000 nM.

For `COc1ccccc1CNC(=O)CN1C(=O)c2cccnc2Oc2ccccc21`, the EC50 is over 586 nM in the data set with Plasmodium falciparum [1] and 1350 nM in the data set on Plasmodium falciparum [2]. Moreover, in data set [3], the cytotoxic concentration (CC50) is over 10000 nM.

As to `Cc1ccc2nc(Cl)c3cc(C(=O)NCCN4CCN(C)CC4)sc3c2c1`, the EC50 in the data set with Plasmodium falciparum [1] stood at 7770 nM; in the data set on Plasmodium falciparum [2], 11700 nM. In addition, in data set [3], the CC50 came out at 85900 nM.

For `O=[N+]([O-])c1ccc(N2CCN(c3nc(NCCc4c[nH]c5ccccc45)c4ccccc4n3)CC2)cc1`, the half-maximal effective concentration (EC50) came out at 171 nM with Plasmodium falciparum [1] and 1980 nM in the data set on Plasmodium falciparum [2]. This molecule registered a CC50 in data set [3] of 14300 nM.

With `CCOC(=O)c1c(NC(=O)CSc2nnc(CNC(=O)c3ccc(C)c(C)c3)n2C2CCCCC2)sc2c1CCC2`, the results for the EC50 in the data set with Plasmodium falciparum [1] and with Plasmodium falciparum [2] were over 1090 nM and over 1400 nM, respectively. Further, in data set [3], the 50% cytotoxic concentration (CC50) was over 10000 nM.

As for `CN1c2ccccc2N(C)C1c1ccc2c(c1)OCO2`, the results for the half-maximal effective concentration (EC50) in the data set on Plasmodium falciparum [1] and in the data set on Plasmodium falciparum [2] were 1120 nM and over 1410 nM, respectively. Also, the cytotoxic concentration (CC50) in data set [3] was over 10000 nM.

Consider `Cc1c(Cl)cccc1NC(=O)C1C(C(=O)O)C2C=CC1C21CC1` (stereo not given), for which the EC50 in the data set with Plasmodium falciparum [1] was 1250 nM; in the data set with Plasmodium falciparum [2], 1400 nM. In data set [3], this molecule registered a CC50 of over 10000 nM.

As to `COCCN1Cc2cccc(C(=O)Nc3ccc4c(c3)OCCO4)c2C1=O`, the 50% effective concentration (EC50) with Plasmodium falciparum [1] was over 1450 nM; in the data set on Plasmodium falciparum [2], 1390 nM. Further, the CC50 in data set [3] is over 10000 nM.
